Read-outs that look alike come from different tables or passages of the source.
Columns and labels:
Format in all cases: biochemical
JAK2V617F = biological target: T1, JAK2V617F (Homo sapiens, UniProt O60674, V617F); test: JAK2V617F microfluidic kinase assay (Caliper EZ Reader II, FAM labeled peptide substrate); details: (2.5 nM), 1 mM ATP
T1 construct: purchased Carna Biosciences
Method: (§1) Compounds were tested against JAK1, JAK2, JAK2V617F and TYK2.
(§2) Assay Formats: JAK activity was determined in the reaction buffer 50 mM HEPES, 0.01% Brij35, 10 mMMgCl2, 2 mMDTT by a microfluidic assay. The phosphorylation of a FAM labeled peptide substrate was monitored in the Caliper EZ Reader II (Perkin Elmer). The assay condition for each batch of enzyme (Carna Biosciences) was optimized to obtain 10% conversion rate of peptide substrate.
(§3) The test compounds were dissolved in DMSO to a stock concentration of 10 mM. 3-fold serially diluted compounds with top concentration of 5 μM were pre-incubated with JAK1, JAK2, JAK2V617F or TYK2 for 10 min at ambient temperature. The final DMSO concentration of assay mixture was 1%. FAM labeled peptide substrate (final concentration […]) and ATP (1 mM concentration) were sequentially added to initiate the kinase reaction at 28° C. The reaction was stopped by adding 50 mMEDTA. The reaction time for JAK1, JAK2, JAK2V617F and TYK2 was 120 min, 20 min, 30 min and 10 min, respectively.
(§4) The well in the test plate without enzyme was defined as 100% inhibition. And the well without compound but with equivalent DMSO was defined as no inhibition. The percent inhibition was calculated by the following formula. % Inhibition=(Conversionmax−Conversionsample)/(Conversionmax−Conversionmin)*100Conversionmax means the conversion rate in the positive well without addition of compound Conversionmin means the conversion rate in the well without addition of enzyme Conversionsample means the conversion rate of test compounds
(§5) The dose-response (percent inhibition) curve was plotted and IC50 values were determined by GraphPad software.

JAK2 = biological target: T2, JAK2 (Homo sapiens, UniProt O60674); test: JAK2 microfluidic kinase assay (Caliper EZ Reader II, FAM labeled peptide substrate); details: (0.25 nM), 1 mM ATP
T2 construct: purchased Carna Biosciences
Method: as §1, §2, §3, §4, §5

JAK1 = biological target: T3, JAK1 (Homo sapiens, UniProt P23458); test: JAK1 microfluidic kinase assay (Caliper EZ Reader II, FAM labeled peptide substrate); details: (5 nM), 1 mM ATP
T3 construct: purchased Carna Biosciences
Method: as §1, §2, §3, §4, §5

TYK2 = biological target: T4, TYK2 (Homo sapiens, UniProt P29597); test: TYK2 microfluidic kinase assay (Caliper EZ Reader II, FAM labeled peptide substrate); details: (2.5 nM), 1 mM ATP
T4 construct: purchased Carna Biosciences
Method: as §1, §2, §3, §4, §5

[1] = Table 2, read-out: IC50 J2V617F (2.5 nM) (1 mM ATP)
[2] = Table 2, read-out: IC50 JAK2 (0.25 nM) (1 mM ATP)
[3] = Table 2, read-out: IC50 JAK1 (5 nM) (1 mM ATP)
[4] = Table 2, read-out: IC50 TYK2 (2.5 nM) (1 mM ATP)

T1 sequence (O60674 whole entry V617F): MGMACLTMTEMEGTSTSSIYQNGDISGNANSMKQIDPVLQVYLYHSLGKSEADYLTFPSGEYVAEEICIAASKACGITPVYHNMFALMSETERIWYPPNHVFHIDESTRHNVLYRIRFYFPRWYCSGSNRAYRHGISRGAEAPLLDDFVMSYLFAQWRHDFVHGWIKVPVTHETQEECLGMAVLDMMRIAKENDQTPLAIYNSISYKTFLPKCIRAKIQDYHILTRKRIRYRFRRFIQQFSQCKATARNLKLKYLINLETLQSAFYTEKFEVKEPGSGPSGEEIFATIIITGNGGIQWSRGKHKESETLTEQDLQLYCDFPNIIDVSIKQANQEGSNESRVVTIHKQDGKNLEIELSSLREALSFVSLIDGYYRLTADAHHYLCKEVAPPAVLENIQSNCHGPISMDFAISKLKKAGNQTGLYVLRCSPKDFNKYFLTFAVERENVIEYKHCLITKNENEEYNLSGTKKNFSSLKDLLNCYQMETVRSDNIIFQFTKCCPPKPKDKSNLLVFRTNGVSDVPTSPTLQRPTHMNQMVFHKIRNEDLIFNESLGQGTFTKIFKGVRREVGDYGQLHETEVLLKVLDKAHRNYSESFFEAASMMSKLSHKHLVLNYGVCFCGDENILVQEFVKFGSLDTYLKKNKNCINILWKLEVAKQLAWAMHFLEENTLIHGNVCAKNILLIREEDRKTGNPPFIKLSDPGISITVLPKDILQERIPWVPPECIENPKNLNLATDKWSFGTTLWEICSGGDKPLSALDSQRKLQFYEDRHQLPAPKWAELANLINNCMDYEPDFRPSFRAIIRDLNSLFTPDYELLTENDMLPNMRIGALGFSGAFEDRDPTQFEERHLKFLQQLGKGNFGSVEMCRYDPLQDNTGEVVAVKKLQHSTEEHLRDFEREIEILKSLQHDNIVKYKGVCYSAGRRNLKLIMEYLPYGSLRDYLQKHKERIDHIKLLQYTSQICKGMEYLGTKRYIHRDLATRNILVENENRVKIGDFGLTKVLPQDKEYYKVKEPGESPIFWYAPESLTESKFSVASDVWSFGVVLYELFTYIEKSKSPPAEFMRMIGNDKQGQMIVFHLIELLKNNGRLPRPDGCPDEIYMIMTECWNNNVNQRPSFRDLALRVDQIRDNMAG
T3 sequence (P23458 whole entry): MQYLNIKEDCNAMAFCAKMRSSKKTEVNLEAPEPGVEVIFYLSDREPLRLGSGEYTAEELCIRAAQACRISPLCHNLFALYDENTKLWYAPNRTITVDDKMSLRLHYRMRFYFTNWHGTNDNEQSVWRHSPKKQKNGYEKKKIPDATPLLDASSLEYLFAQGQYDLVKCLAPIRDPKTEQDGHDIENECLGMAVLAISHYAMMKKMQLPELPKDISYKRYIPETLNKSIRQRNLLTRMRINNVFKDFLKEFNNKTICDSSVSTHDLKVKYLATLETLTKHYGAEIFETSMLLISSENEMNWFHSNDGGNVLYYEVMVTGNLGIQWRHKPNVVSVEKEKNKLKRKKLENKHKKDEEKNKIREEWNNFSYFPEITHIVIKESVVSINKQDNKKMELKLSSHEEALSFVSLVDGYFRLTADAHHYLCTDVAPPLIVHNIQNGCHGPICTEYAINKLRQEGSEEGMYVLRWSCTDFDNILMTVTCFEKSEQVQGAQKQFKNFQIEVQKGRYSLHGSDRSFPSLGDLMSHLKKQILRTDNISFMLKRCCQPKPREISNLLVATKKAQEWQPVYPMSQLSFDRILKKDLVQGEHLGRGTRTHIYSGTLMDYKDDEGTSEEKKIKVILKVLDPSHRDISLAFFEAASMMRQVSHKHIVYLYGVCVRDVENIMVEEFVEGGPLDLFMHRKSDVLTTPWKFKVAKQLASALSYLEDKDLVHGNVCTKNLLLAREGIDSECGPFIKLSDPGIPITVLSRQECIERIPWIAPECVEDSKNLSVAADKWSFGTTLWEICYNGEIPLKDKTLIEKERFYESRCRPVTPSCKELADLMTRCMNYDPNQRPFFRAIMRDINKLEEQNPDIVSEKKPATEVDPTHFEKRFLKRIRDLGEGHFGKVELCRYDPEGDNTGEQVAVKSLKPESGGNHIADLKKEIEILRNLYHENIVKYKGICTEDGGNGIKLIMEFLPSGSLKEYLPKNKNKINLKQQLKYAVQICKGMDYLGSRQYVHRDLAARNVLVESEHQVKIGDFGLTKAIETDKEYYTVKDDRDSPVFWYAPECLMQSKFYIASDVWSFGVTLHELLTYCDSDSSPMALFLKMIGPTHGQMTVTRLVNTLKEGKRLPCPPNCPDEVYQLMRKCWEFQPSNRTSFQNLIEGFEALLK
T4 sequence (P29597 whole entry): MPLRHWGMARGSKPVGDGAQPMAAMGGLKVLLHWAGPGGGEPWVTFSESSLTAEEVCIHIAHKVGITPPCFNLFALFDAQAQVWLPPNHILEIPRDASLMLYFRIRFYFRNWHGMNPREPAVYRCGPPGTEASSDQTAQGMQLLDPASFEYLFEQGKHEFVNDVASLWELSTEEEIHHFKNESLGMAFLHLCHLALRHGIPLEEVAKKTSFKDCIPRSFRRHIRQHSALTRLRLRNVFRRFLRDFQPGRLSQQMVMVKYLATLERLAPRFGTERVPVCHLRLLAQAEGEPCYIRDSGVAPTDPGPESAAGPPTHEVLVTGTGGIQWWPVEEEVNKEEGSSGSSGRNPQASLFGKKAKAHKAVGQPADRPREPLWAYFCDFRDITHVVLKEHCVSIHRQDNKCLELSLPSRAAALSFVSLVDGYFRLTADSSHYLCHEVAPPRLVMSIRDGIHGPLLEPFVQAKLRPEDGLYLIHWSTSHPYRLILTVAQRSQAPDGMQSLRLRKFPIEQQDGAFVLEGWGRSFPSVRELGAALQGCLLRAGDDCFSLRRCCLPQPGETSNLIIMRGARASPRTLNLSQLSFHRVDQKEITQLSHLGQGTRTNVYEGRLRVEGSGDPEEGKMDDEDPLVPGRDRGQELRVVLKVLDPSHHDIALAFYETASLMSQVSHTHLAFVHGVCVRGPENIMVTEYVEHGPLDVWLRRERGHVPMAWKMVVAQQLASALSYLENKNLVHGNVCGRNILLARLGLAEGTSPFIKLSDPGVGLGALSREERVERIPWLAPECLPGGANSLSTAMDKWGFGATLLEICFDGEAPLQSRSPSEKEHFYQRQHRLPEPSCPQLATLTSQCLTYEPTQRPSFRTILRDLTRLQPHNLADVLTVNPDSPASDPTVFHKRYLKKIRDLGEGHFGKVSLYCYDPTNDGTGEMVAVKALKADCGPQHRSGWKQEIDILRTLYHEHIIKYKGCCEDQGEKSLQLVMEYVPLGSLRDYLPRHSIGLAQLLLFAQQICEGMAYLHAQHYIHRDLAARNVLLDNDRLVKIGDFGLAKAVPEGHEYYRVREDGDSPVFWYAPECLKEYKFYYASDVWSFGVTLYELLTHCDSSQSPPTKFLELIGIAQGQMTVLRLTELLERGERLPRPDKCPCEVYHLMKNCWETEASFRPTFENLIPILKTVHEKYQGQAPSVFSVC
T2 sequence (O60674 whole entry): as the sequence (O60674 whole entry V617F) above, with F617V counted along it

IC50 (JAK2V617F; [1]) [nM]	IC50 (JAK2; [2]) [nM]	IC50 (JAK1; [3]) [nM]	IC50 (TYK2; [4]) [nM]	IC50 (JAK2V617F; Table 3B, literature compounds, read-out: J2V617F (2.5 nM) (1 mM ATP)) [nM]	IC50 (JAK2; Table 3B, literature compounds, read-out: JAK2 (0.25 nM) (1 mM ATP)) [nM]	IC50 (JAK1; Table 3B, literature compounds, read-out: JAK1 (5 nM) (1 mM ATP)) [nM]	IC50 (TYK2; Table 3B, literature compounds, read-out: TYK2 (2.5 nM) (1 mM ATP)) [nM]	Compound
< 1.25	< 0.25	< 2.5	< 1.25	–	–	–	–	Cc1cnc(Nc2cnn(C3CCN(C)CC3)c2)nc1-c1ccc(OCC(C)(C)C#N)cc1 [Example 17, 2,2-dimethyl-3-(4-(5-methyl-2-((1-(1-methylpiperidin-4-yl)-1H-pyrazol-4-yl)amino)pyrimidin-4-yl)phenoxy)propanenitrile]
–	–	–	–	343	201	151	157	CCOc1ccc(-c2nc(Nc3cnn(C)c3)ncc2C)cc1 [Example 50, 4-(4-ethoxyphenyl)-5-methyl-N-(1-methyl-1H-pyrazol-4-yl)pyrimidin-2-amine, reference compound]
< 1.25	< 0.25	7.31	< 1.25	–	–	–	–	COCCn1cc(Nc2ncc(C)c(-c3ccc(OCC4(C#N)CC4)c(F)c3)n2)cn1 [Example 21, 1-((2-fluoro-4-(2-((1-(2-methoxyethyl)-1H-pyrazol-4-yl)amino)-5-methylpyrimidin-4-yl)phenoxy)methyl)cyclopropane-carbonitrile]
< 1.25	0.425	< 2.5	< 1.25	–	–	–	–	Cc1cnc(Nc2cnn(C3CC3)c2)nc1-c1ccc(OCC(C)(C)C#N)c(F)c1 [Example 4, 3-(4-(2-((1-cyclopropyl-1H-pyrazol-4-yl)amino)-5-methylpyrimidin-4-yl)-2-fluorophenoxy)-2,2-dimethylpropanenitrile]
3.18	0.27	4.8	12	–	–	–	–	Cc1cnc(Nc2cnn(C3CC3)c2)nc1-c1ccc(OCC(C)(C)C#N)cc1 [Example 1, 3-(4-(2-((1-cyclopropyl-1H-pyrazol-4-yl)amino)-5-methylpyrimidin-4-yl)phenoxy)-2,2-dimethylpropanenitrile]

Reference: patent publication US12024503B2, “Benzethers and anilines of pyrazolyl-amino-pyrimidinyl derivatives, and compositions and methods thereof” (LYNK PHARMACEUTICALS CO. LTD., priority 2019, dated 2024)
